Experimental data as given in PubChem BioAssay (NCI).
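Cells were grown in 96-well plates and exposed to each compound for 48 hours at five concentrations; endpoints were interpolated linearly between bracketing concentrations, or set to the highest concentration if not reached. Abbreviation: GI50, concentration required for 50% inhibition of growth. TGI marks complete inhibition of growth.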

What was measured:
Assay in all cases: NCI tumour cell line growth inhibition, 48 h
OVCAR-5 ovarian = test system: OVCAR-5 ovarian
U251 CNS = test system: U251 CNS
HCT-116 colon = test system: HCT-116 colon
DU-145 prostate = test system: DU-145 prostate
OVCAR-8 ovarian = test system: OVCAR-8 ovarian
MOLT-4 leukemia = test system: MOLT-4 leukemia
MDA-MB-435 = test system: MDA-MB-435
SW-620 colon = test system: SW-620 colon
UACC-62 melanoma = test system: UACC-62 melanoma
MDA-MB-231 breast = test system: MDA-MB-231 breast

SMILES | TGI (OVCAR-5 ovarian) [µM] | TGI (U251 CNS) [µM] | TGI (HCT-116 colon) [µM] | TGI (DU-145 prostate) [µM] | TGI (OVCAR-8 ovarian) [µM] | TGI (MOLT-4 leukemia) [µM] | TGI (MDA-MB-435) [µM] | TGI (SW-620 colon) [µM] | TGI (UACC-62 melanoma) [µM] | TGI (MDA-MB-231 breast) [µM] | GI50 (OVCAR-5 ovarian) [µM] | GI50 (U251 CNS) [µM] | GI50 (DU-145 prostate) [µM] | GI50 (OVCAR-8 ovarian) [µM] | GI50 (MDA-MB-435) [µM] | GI50 (MDA-MB-231 breast) [µM] | GI50 (SW-620 colon) [µM] | GI50 (UACC-62 melanoma) [µM]
O=C(CN1CCCC1=O)CS(=O)(=O)c1ccccc1 | > 100 | > 100 | > 100 | > 100 | > 100 | > 100 | > 100 | > 100 | > 100 | – | – | – | – | – | – | – | – | –
CCC12CCCN(Cc3ccccc3)C1c1c(n(C)c3ccccc13)C(CO)C2 (configuration not stated) | 75.6 | 134 | 53.6 | – | 186 | 149 | – | 89.2 | 115 | – | – | – | – | – | – | – | – | –
COc1cc(C2c3cc4c(cc3OC(NNC(N)=O)C2C)OCO4)cc(OC)c1OC (configuration not stated) | > 100 | – | > 36.5 | > 100 | > 100 | > 100 | – | > 100 | > 100 | 7.25 | – | – | – | – | – | – | – | –
Cc1ccccc1NC(=O)Cc1csc(N/N=C2\NC(=O)/C(=C/c3cccc([N+](=O)[O-])c3)S2)n1 | 45.8 | 53.8 | > 100 | > 100 | > 100 | > 100 | 39.5 | > 100 | – | 57.3 | – | – | – | – | – | – | – | –
Fc1ccc(-c2sc(-c3ccsc3)cc2Cc2ccsc2)cc1 | – | – | – | > 10 | > 10 | > 10 | > 10 | > 10 | > 10 | > 10 | – | – | – | – | – | – | – | –
O=P(O)(O)c1ccc(-c2ccc(I)cc2)cc1 | > 100 | > 100 | > 100 | > 100 | > 100 | > 100 | – | > 100 | > 100 | > 100 | – | – | – | – | – | – | – | –
CC[C@@]1(O)C[C@H](OC2CC(N(C)C)C(O)C(C)O2)c2c(cc3c(c2O)C(=O)c2c(O)ccc(O)c2C3=O)[C@H]1C(=O)OC (some centres not stated) | 0.836 | 1.23 | 0.829 | – | 0.643 | 0.192 | – | 0.662 | 0.252 | – | – | – | – | – | – | – | – | –
CC#C[C@]1(O)CCC2[C@@H]3CCC4=CC(=O)CCC4=C3[C@@H](c3ccc(N(C)C)cc3)C[C@@]21C (some centres not stated) | 79.1 | 35.2 | 39.6 | 73.1 | > 100 | – | 34 | > 100 | 18.6 | 35.4 | – | – | – | – | – | – | – | –
Cc1cc(=O)oc2cc(OCCCOc3ccc4c(C)cc(=O)oc4c3)ccc12 | – | > 100 | > 100 | – | > 100 | > 100 | – | > 100 | > 100 | – | – | – | – | – | – | – | – | –
CCC(C)(C)c1cc(O)c(C(C)(C)CC)cc1O | 17.6 | 6.23 | – | 17.1 | 23.5 | – | 10.9 | 6.89 | 6.84 | 8.04 | 4.97 | 2.18 | 4.39 | 4.48 | 2.62 | 2.35 | 2.35 | 2.28
CC(C)(C)N/N=C(\C(=O)Nc1cccc(Cl)c1)C1C(=O)Nc2ccccc2S1=O (configuration not stated) | – | – | – | – | > 100 | > 100 | – | > 100 | > 100 | – | – | – | – | – | – | – | – | –
CN(C)C(=O)Oc1c(Br)cc(Br)cc1C(=O)OCc1ccccc1 | > 100 | 56.2 | 29 | – | > 100 | 44.3 | – | > 100 | 39.4 | – | – | – | – | – | – | – | – | –
O=c1[nH]c2ccccc2c(O)c1Cc1ccccc1 | > 100 | > 100 | > 100 | > 100 | > 100 | > 100 | > 100 | > 100 | – | > 100 | – | – | – | – | – | – | – | –
Cn1c(-c2ccc[se]2)ccc1-c1ccc(C=O)[se]1 | – | 25.4 | > 100 | > 100 | 42.2 | > 100 | > 100 | > 51.6 | – | > 100 | – | – | – | – | – | – | – | –
COC(C/C(=C/CO[Si](C(C)C)(C(C)C)C(C)C)C(=O)N(C(=O)OC(C)(C)C)c1ccccc1I)OC | > 100 | > 100 | > 100 | > 100 | > 100 | > 100 | > 100 | > 100 | > 100 | – | – | – | – | – | – | – | – | –
CC1(C)OC[C@H](C(=N)OCc2ccccc2)O1 | > 100 | > 100 | > 100 | – | > 100 | > 100 | – | > 100 | > 100 | – | – | – | – | – | – | – | – | –
Nc1nc(Cl)cc(OCC2(CO)CCCC2)n1 | > 100 | > 100 | > 100 | > 100 | > 100 | > 100 | > 100 | > 100 | – | – | – | – | – | – | – | – | – | –
CCCCCCSc1nc(N)nc2nc[nH]c12 | > 100 | > 100 | > 100 | – | > 100 | > 100 | – | > 100 | > 100 | – | – | – | – | – | – | – | – | –

SMILES | TGI (OVCAR-5 ovarian) [µM] | TGI (U251 CNS) [µM] | TGI (HCT-116 colon) [µM] | TGI (DU-145 prostate) [µM] | TGI (OVCAR-8 ovarian) [µM] | TGI (MOLT-4 leukemia) [µM] | TGI (MDA-MB-435) [µM] | TGI (SW-620 colon) [µM] | TGI (UACC-62 melanoma) [µM] | TGI (MDA-MB-231 breast) [µM] | GI50 (OVCAR-5 ovarian) [µM] | GI50 (U251 CNS) [µM] | GI50 (DU-145 prostate) [µM] | GI50 (OVCAR-8 ovarian) [µM] | GI50 (MDA-MB-435) [µM] | GI50 (MDA-MB-231 breast) [µM] | GI50 (SW-620 colon) [µM] | GI50 (UACC-62 melanoma) [µM]
COc1cccc2c1OC1Sc3ccccc3-c3nn(-c4ccccc4)c-2c31 (configuration not stated) | > 100 | > 100 | > 100 | – | > 100 | > 100 | – | > 100 | – | – | – | – | – | – | – | – | – | –
CC(=O)O[C@H]1C(=O)[C@@]2(C)[C@H]([C@H](OC(=O)c3ccccc3)[C@]3(O)C[C@H](OC(=O)[C@H](O)[C@@H](NC(=O)c4ccccc4)c4ccc5ccccc5c4)C(C)=C1C3(C)C)[C@]1(OC(C)=O)CO[C@@H]1C[C@@H]2O | 2 | 1.46 | 0.237 | – | 25.8 | 1.09 | 0.0238 | > 50 | 12.7 | 1.8 | – | – | – | – | – | – | – | –
Cn1c(-c2ccc(-c3cc(-c4cccs4)c(-c4cccs4)n3C)cc2)cc(-c2cccs2)c1-c1cccs1 | – | > 100 | > 100 | > 100 | > 100 | > 100 | > 100 | > 100 | > 100 | > 100 | – | – | – | – | – | – | – | –
CC(C)C(Nc1ncnc2nc[nH]c12)C(=O)O (configuration not stated) | > 100 | > 100 | > 100 | > 100 | > 100 | – | > 100 | > 100 | > 100 | > 100 | – | – | – | – | – | – | – | –
COc1ccc2c(c1)Oc1cc(O)ccc1[C@H]2c1ccccc1C(=O)NC(C)c1ccccc1 (some centres not stated) | 29.4 | 29.4 | 26.5 | – | 36 | 64.8 | – | 35.6 | 24.8 | – | – | – | – | – | – | – | – | –
CC(C)=CC1C(C(=O)Oc2ccccc2C(C)C)C1(C)C (configuration not stated) | 48.8 | 33.6 | 50.9 | > 100 | > 100 | – | > 100 | 66 | > 100 | 52 | – | – | – | – | – | – | – | –
COc1cccc2c1C(=O)c1c(O)c3c(c(O)c1C2=O)C[C@@](O)(C(C)=O)CC3S(=O)(=O)O (some centres not stated) | > 100 | > 100 | > 100 | – | > 100 | > 100 | – | > 100 | > 100 | – | – | – | – | – | – | – | – | –
O=C1C=C(Nc2ccccc2C(=O)CC(=O)C(=O)Nc2ccc(Cl)cc2)c2ccccc2C1=O | 35.6 | 68.2 | 28.8 | – | 37.4 | > 38.5 | – | 27 | 29.8 | – | – | – | – | – | – | – | – | –
CN1CCN(C(=O)CCC(=O)Nc2cc3c(c4ccccc24)-c2ccc4ccccc4c2C3)CC1 | 3.15 | 4.11 | 2.95 | 3.52 | 4.38 | – | 3.02 | – | 3.32 | 2.93 | – | – | – | – | – | – | – | –
COc1ccc2nc3c([N+](=O)[O-])ccc(NCCN(C)C)c3c(N)c2c1 | 3.09 | 3.13 | 0.296 | 3.17 | 4.33 | 2.46 | – | 0.562 | 3.63 | 1.27 | – | – | – | – | – | – | – | –
O=C1/C(=C/c2ccc(Cl)cc2)Oc2cc(O)ccc21 | – | 76.1 | > 100 | > 100 | > 100 | 48.1 | > 100 | > 100 | > 100 | > 100 | – | – | – | – | – | – | – | –
COC(=O)[C@H](CC(C)C)NC(=O)[C@H](Cc1ccccc1)N1CC2C=CC1C2 (some centres not stated) | > 100 | > 100 | – | – | > 100 | > 100 | – | > 100 | > 100 | – | – | – | – | – | – | – | – | –
O=C(Cc1nc2ccc(C(=O)c3ccccc3)cc2[nH]c1=O)C(=O)Nc1nc2ccccc2[nH]1 | – | – | > 100 | – | > 100 | > 100 | – | > 100 | > 100 | – | – | – | – | – | – | – | – | –
Nn1c(Nc2ccc(S(N)(=O)=O)cc2)nnc(/C=C/c2c(O)ccc3ccccc23)c1=O | 56.1 | > 100 | 34.1 | 91.2 | 22.6 | 0.805 | 50.1 | 45.3 | 49.9 | – | – | – | – | – | – | – | – | –
N#Cc1c(N)oc(-c2ccc([N+](=O)[O-])cc2)c1C#N | > 100 | > 100 | > 100 | 59.3 | 52.2 | – | > 100 | > 100 | > 100 | 64.3 | – | – | – | – | – | – | – | –
COC1=C[C@]2(CCC(=O)O2)[C@@H]2Cc3ccccc3[C@H](O)[C@@H]2C1=O | > 100 | 79.6 | > 100 | – | > 100 | 38.9 | 31 | 88.8 | 65.1 | > 100 | – | – | – | – | – | – | – | –
O=c1cc(-c2ccccc2)[nH]c2ncccc12 | > 100 | – | > 54 | > 100 | 4.01 | > 100 | – | > 100 | – | > 26.7 | – | – | – | – | – | – | – | –
COC1OCC(O)C(NC(=O)N(C)N=O)C1O (configuration not stated) | > 100 | > 100 | > 100 | – | > 100 | > 100 | – | > 100 | > 100 | – | – | – | – | – | – | – | – | –
